Test results from ChEMBL document CHEMBL1255421, “In vitro fungicidal activities of echinocandins against Candida metapsilosis, C. orthopsilosis, and C. parapsilosis evaluated by time-kill studies” (2010).
Converted amounts (≈) assume the structure as drawn. The source made the active and inactive calls. The calls are words filed in the database; no cut-off is given here.

Key:
Candida orthopsilosis [1] = assay: Antifungal activity against Candida orthopsilosis clinical isolate bloodstream form assessed as time required for 99.9% reduction in fungal growth at 1 mg/L by time-kill assay; format: functional
Candida orthopsilosis [2] = assay: Antifungal activity against Candida orthopsilosis clinical isolate bloodstream form assessed as time required for 99.9% reduction in fungal growth at 16 mg/L by time-kill assay; format: functional
Candida orthopsilosis [3] = assay: Antifungal activity against Candida orthopsilosis clinical isolate bloodstream form assessed as time required for 99.9% reduction in fungal growth at 32 mg/L by time-kill assay; format: functional
Candida metapsilosis [4] = assay: Antifungal activity against Candida metapsilosis clinical isolate bloodstream form assessed as time required for 50% reduction in fungal growth at 0.25 mg/L by time-kill assay; format: functional
Candida metapsilosis [5] = assay: Antifungal activity against Candida metapsilosis clinical isolate bloodstream form assessed as time required for 50% reduction in fungal growth at 1 mg/L by time-kill assay; format: functional
Candida metapsilosis [6] = assay: Antifungal activity against Candida metapsilosis clinical isolate bloodstream form assessed as time required for 50% reduction in fungal growth at 4 mg/L by time-kill assay; format: functional
Candida metapsilosis [7] = assay: Antifungal activity against Candida metapsilosis clinical isolate bloodstream form assessed as time required for 90% reduction in fungal growth at 4 mg/L by time-kill assay; format: functional
Candida metapsilosis [8] = assay: Antifungal activity against Candida metapsilosis clinical isolate bloodstream form assessed as time required for 90% reduction in fungal growth at 16 mg/L by time-kill assay; format: functional
Candida metapsilosis [9] = assay: Antifungal activity against Candida metapsilosis clinical isolate bloodstream form assessed as time required for 99% reduction in fungal growth at 1 mg/L by time-kill assay; format: functional
Candida metapsilosis [10] = assay: Antifungal activity against Candida metapsilosis clinical isolate bloodstream form assessed as time required for 99% reduction in fungal growth at 16 mg/L by time-kill assay; format: functional
Candida metapsilosis [11] = assay: Antifungal activity against Candida metapsilosis clinical isolate bloodstream form assessed as time required for 99% reduction in fungal growth at 32 mg/L by time-kill assay; format: functional
Candida metapsilosis [12] = assay: Antifungal activity against Candida metapsilosis clinical isolate bloodstream form assessed as time required for 99.9% reduction in fungal growth at 0.25 mg/L by time-kill assay; format: functional
Candida metapsilosis [13] = assay: Antifungal activity against Candida metapsilosis clinical isolate bloodstream form assessed as time required for 99.9% reduction in fungal growth at 4 mg/L by time-kill assay; format: functional
Candida metapsilosis [14] = assay: Antifungal activity against Candida metapsilosis clinical isolate bloodstream form assessed as time required for 99.9% reduction in fungal growth at 16 mg/L by time-kill assay; format: functional
Candida parapsilosis [15] = assay: Antifungal activity against Candida parapsilosis clinical isolate bloodstream form assessed as time required for 50% reduction in fungal growth at 1 mg/L by time-kill assay; format: functional
Candida parapsilosis [16] = assay: Antifungal activity against Candida parapsilosis clinical isolate bloodstream form assessed as time required for 50% reduction in fungal growth at 4 mg/L by time-kill assay; format: functional
Candida parapsilosis [17] = assay: Antifungal activity against Candida parapsilosis clinical isolate bloodstream form assessed as time required for 50% reduction in fungal growth at 16 mg/L by time-kill assay; format: functional
Candida parapsilosis [18] = assay: Antifungal activity against Candida parapsilosis clinical isolate bloodstream form assessed as time required for 90% reduction in fungal growth at 4 mg/L by time-kill assay; format: functional
Candida parapsilosis [19] = assay: Antifungal activity against Candida parapsilosis clinical isolate bloodstream form assessed as time required for 90% reduction in fungal growth at 16 mg/L by time-kill assay; format: functional
Candida parapsilosis [20] = assay: Antifungal activity against Candida parapsilosis clinical isolate bloodstream form assessed as time required for 90% reduction in fungal growth at 32 mg/L by time-kill assay; format: functional
Candida parapsilosis [21] = assay: Antifungal activity against Candida parapsilosis clinical isolate bloodstream form assessed as time required for 99.9% reduction in fungal growth at 0.25 mg/L by time-kill assay; format: functional
Candida parapsilosis [22] = assay: Antifungal activity against Candida parapsilosis clinical isolate bloodstream form assessed as time required for 99.9% reduction in fungal growth at 1 mg/L by time-kill assay; format: functional
Candida parapsilosis [23] = assay: Antifungal activity against Candida parapsilosis clinical isolate bloodstream form assessed as time required for 99.9% reduction in fungal growth at 4 mg/L by time-kill assay; format: functional
Candida parapsilosis [24] = assay: Antifungal activity against Candida parapsilosis clinical isolate bloodstream form assessed as time required for 99.9% reduction in fungal growth at 16 mg/L by time-kill assay; format: functional
Candida orthopsilosis [25] = assay: Fungicidal activity against Candida orthopsilosis isolate CP-131 bloodstream form by CLSI method; format: functional; details: Lodderomyces orthopsilosis
Candida orthopsilosis [26] = assay: Fungicidal activity against Candida orthopsilosis isolate ATC194 bloodstream form by CLSI method; format: functional; details: Lodderomyces orthopsilosis, isolate ATC-194
Candida metapsilosis [27] = assay: Fungicidal activity against Candida metapsilosis isolate CP-132 bloodstream form by CLSI method; format: functional; details: Lodderomyces metapsilosis
Candida parapsilosis [28] = assay: Fungicidal activity against Candida parapsilosis isolate CP-300 bloodstream form by CLSI method; format: functional; details: Lodderomyces parapsilosis
Candida parapsilosis [29] = assay: Fungicidal activity against Candida parapsilosis isolate CP-301 bloodstream form by CLSI method; format: functional; details: Lodderomyces parapsilosis
Candida parapsilosis [30] = assay: Fungicidal activity against Candida parapsilosis ATCC 22019 bloodstream form by CLSI method; format: functional; details: Lodderomyces parapsilosis
Candida parapsilosis [31] = assay: Antifungal activity against Candida parapsilosis clinical isolate bloodstream form assessed as induction of fungal killing rate at 0.03 to 32 mg/L measured at 6 hrs by time-kill assay; format: functional, organism-based
Candida orthopsilosis [32] = assay: Antifungal activity against Candida orthopsilosis clinical isolate bloodstream form assessed as induction of fungal killing rate at 0.03 to 32 mg/L measured at 6 hrs by time-kill assay; format: functional, organism-based
Candida metapsilosis [33] = assay: Antifungal activity against Candida metapsilosis clinical isolate bloodstream form assessed as mild induction of fungal death at 0.03 to 32 mg/L after 6 hrs by time-kill assay; format: functional, organism-based
Candida orthopsilosis [34] = assay: Antifungal activity against Candida orthopsilosis clinical isolate bloodstream form assessed as time required for 50% reduction in fungal growth at 0.25 mg/L by time-kill assay; format: functional
Candida orthopsilosis [35] = assay: Antifungal activity against Candida orthopsilosis clinical isolate bloodstream form assessed as time required for 50% reduction in fungal growth at 4 mg/L by time-kill assay; format: functional
Candida orthopsilosis [36] = assay: Antifungal activity against Candida orthopsilosis clinical isolate bloodstream form assessed as time required for 50% reduction in fungal growth at 16 mg/L by time-kill assay; format: functional
Candida orthopsilosis [37] = assay: Antifungal activity against Candida orthopsilosis clinical isolate bloodstream form assessed as time required for 90% reduction in fungal growth at 0.25 mg/L by time-kill assay; format: functional
Candida orthopsilosis [38] = assay: Antifungal activity against Candida orthopsilosis clinical isolate bloodstream form assessed as time required for 90% reduction in fungal growth at 1 mg/L by time-kill assay; format: functional
Candida orthopsilosis [39] = assay: Antifungal activity against Candida orthopsilosis clinical isolate bloodstream form assessed as time required for 99% reduction in fungal growth at 0.25 mg/L by time-kill assay; format: functional
Candida orthopsilosis [40] = assay: Antifungal activity against Candida orthopsilosis clinical isolate bloodstream form assessed as time required for 99% reduction in fungal growth at 1 mg/L by time-kill assay; format: functional
Candida orthopsilosis [41] = assay: Antifungal activity against Candida orthopsilosis clinical isolate bloodstream form assessed as time required for 99% reduction in fungal growth at 4 mg/L by time-kill assay; format: functional
Candida orthopsilosis [42] = assay: Antifungal activity against Candida orthopsilosis clinical isolate bloodstream form assessed as time required for 99% reduction in fungal growth at 16 mg/L by time-kill assay; format: functional
Candida orthopsilosis [43] = assay: Antifungal activity against Candida orthopsilosis clinical isolate bloodstream form assessed as time required for 99% reduction in fungal growth at 32 mg/L by time-kill assay; format: functional

CC[C@H](C)C[C@H](C)CCCCCCCCC(=O)N[C@H]1C[C@@H](O)[C@@H](NCCN)NC(=O)[C@@H]2[C@@H](O)CCN2C(=O)[C@H]([C@H](O)CCN)NC(=O)[C@H]([C@H](O)[C@@H](O)c2ccc(O)cc2)NC(=O)[C@@H]2C[C@@H](O)CN2C(=O)[C@H]([C@@H](C)O)NC1=O [CASPOFUNGIN]
Time (Candida orthopsilosis [1]): >48 h
Time (Candida orthopsilosis [2]): 38.46 h
Time (Candida orthopsilosis [3]): >48 h
Time (Candida metapsilosis [4]): >48 h
Time (Candida metapsilosis [5]): 22.3 h
Time (Candida metapsilosis [6]): 7.7 h
Time (Candida metapsilosis [7]): 25.58 h
Time (Candida metapsilosis [8]): 8.61 h
Time (Candida metapsilosis [9]): >48 h
Time (Candida metapsilosis [10]): 17.21 h
Time (Candida metapsilosis [11]): 13.2 h
Time (Candida metapsilosis [12]): >48 h
Time (Candida metapsilosis [13]): >48 h
Time (Candida metapsilosis [14]): 25.82 h
Time (Candida parapsilosis [15]): 22.3 h
Time (Candida parapsilosis [16]): 7.7 h
Time (Candida parapsilosis [17]): 2.59 h
Time (Candida parapsilosis [18]): 25.58 h
Time (Candida parapsilosis [19]): 8.61 h
Time (Candida parapsilosis [20]): 6.6 h
Time (Candida parapsilosis [21]): >48 h
Time (Candida parapsilosis [22]): >48 h
Time (Candida parapsilosis [23]): >48 h
Time (Candida parapsilosis [24]): >48 h
MIC (Candida orthopsilosis [25]): 2 µg/mL (≈ 1.83 µM)
MIC (Candida orthopsilosis [26]): 0.5 µg/mL (≈ 0.457 µM)
MIC (Candida metapsilosis [27]): 0.25 µg/mL (≈ 0.229 µM)
MIC (Candida parapsilosis [28]): 2 µg/mL (≈ 1.83 µM)
MIC (Candida parapsilosis [29]): 2 µg/mL (≈ 1.83 µM)
MIC (Candida parapsilosis [30]): 1 µg/mL (≈ 0.915 µM)
Activity (Candida parapsilosis [31]): inactive
Activity (Candida orthopsilosis [32]): inactive
Activity (Candida metapsilosis [33]): Active
Time (Candida orthopsilosis [34]): 17.5 h
Time (Candida orthopsilosis [35]): 3.42 h
Time (Candida orthopsilosis [36]): 3.86 h
Time (Candida orthopsilosis [37]): >48 h
Time (Candida orthopsilosis [38]): 24.75 h
Time (Candida orthopsilosis [39]): >48 h
Time (Candida orthopsilosis [40]): >48 h
Time (Candida orthopsilosis [41]): 22.7 h
Time (Candida orthopsilosis [42]): 25.64 h
Time (Candida orthopsilosis [43]): >48 h
